From patent publication EP1832586A1, “Thiazole-piperidine derivatives in treatment of diseases of liver and the pancreas” (Oridis Biomed Forschungs- und Entwicklungs GmbH, priority 2006, dated 2007)

What was measured:
Type in all cases: cell-based
HuH7 = assay: CellTiter-Glo luminescent cell viability (proliferation) assay, HuH7; conditions: inhibition of HuH7 (human hepatoma) proliferation, 48 hours incubation, 10% FCS
Protocol: (§1) To practically assess the impact of the thiazole-piperidine derivatives, e.g. derivatives of piperidinyl-thiazole carboxylic acid and/or piperidinyl thiazole carboxamide, in the treatment and/or prevention of diseases according to the invention, the inhibition of cell proliferation is determined by using a luminescent cell viability assay (CellTiter-Glo®; Promega, Madison, USA). The assay is based on the relation that the ATP content is directly proportional to the number of cells present in the culture. The CellTiter-Glo® assay is performed to measure the proliferation rate of human hepatoma (HuH7, PLC/PRF/5, Hep3B, SK-Hep1), human hepatoblastoma (HepG2), human colon carcinoma (CX-2), human breast cancer (SK-Br-3), human ovarian carcinoma (HeLa) and human pancreatic carcinoma (DAN-G) cell lines. […] In particular, the compound according to formula (1) wherein R^1 is 4-isopropoxycarbonylphenyl, R^2 is 3-indolylmethyl, R^3 is hydrogen, R^4 is hydrogen, n is zero, A is a single bond, B is carbonyl, and wherein the residue R^1NR^3CO is connected to the carbon atom bound to nitrogen of the thiazole ring (compound no. XI in Table 1) inhibits proliferation of the human cell lines HepG2 and Hep3B with 10.8 and 3.5 µM, respectively.
(§2) To determine the inhibition of cell proliferation a luminescent cell viability assay (CellTiter-Glo®; Promega, Madison, USA) is implemented. The assay is based on the relation that the ATP content is directly proportional to the number of cells present in the culture (Technical Bulletin No. 228 "CellTiter-Glo® Luminescent Cell viability Assay", Revised 2/04. Promeg, Madison, USA). The CellTiter-Glo® assay is performed to measure the proliferation rate of human hepatoma (HuH7, PLC/PRF/5, Hep3B, SK-Hep1), human hepatoblastoma (HepG2), human colon carcinoma (CX-2), human breast cancer (SK-Br-3), human ovarian carcinoma (HeLa) and human pancreatic carcinoma (DAN-G) cell lines. 3000 viable cells (viability ≥ 90%) are seeded in opaque-walled 96-well plates and incubated for 24 hours in DMEM, supplemented with 2 mM glutamin. Cell proliferation is stimulated by addition of FCS to a final concentration of 10% (v/v). Simultaneously the compounds (see Table 1 and 2) are added in a concentration range of 0 to 20 µM. Triplicates are measured for each concentration. Cells and compounds (see Table 1 and 2) are incubated for a period of 48 hours in a volume of 140 µl cell culture medium (10% (v/v) FCS, 2 mM Glutamin, DMEM). The compounds according to the invention are dissolved in 60% to 100% (v/v) DMSO at a concentration of 2 mM. The final DMSO concentration under assay conditions never exceeds 1% (v/v). Throughout the assay cells are kept in a humidified incubator (95% rH) at 37°C and 5% CO2.
(§3) The final cell number is determined after 48 hour of incubation. Therefore 140 µl CellTiter-Glo®Reagent is added in each well. The contents are mixed on an orbital shaker for 2 minutes at room temperature. After subsequent incubation for additional 10 minutes at room temperature the luminescence signal is recorded within 30 min. EC50 values are calculated using the four-parametric Hill equation (Sigma Plot). Control values are: • 1) 10% (v/v) FCS, 2 mM glutamin, DMEM -> maximum cell number • 2) 2 mM glutamin, DMEM -> initial cell number

SK-Br-3 = assay: CellTiter-Glo luminescent cell viability (proliferation) assay, SK-Br-3; conditions: Sk-Br-3 (human breast cancer) proliferation, 48 hours incubation, 10% FCS
Protocol: as §1, §2, §3

HeLa = assay: CellTiter-Glo luminescent cell viability (proliferation) assay, HeLa; conditions: Hela (human ovarian carcinoma [sic]) proliferation, 48 hours incubation, 10% FCS
Protocol: as §1, §2, §3

CX-2 = assay: CellTiter-Glo luminescent cell viability (proliferation) assay, CX-2; conditions: CX-2 (human colon carcinoma) proliferation, 48 hours incubation, 10% FCS
Protocol: as §1, §2, §3

DAN-G = assay: CellTiter-Glo luminescent cell viability (proliferation) assay, DAN-G; conditions: DAN-G (human pancreatic carcinoma) proliferation, 48 hours incubation, 10% FCS
Protocol: as §1, §2, §3

Compound	EC50 (HuH7; Homo sapiens, Huh-7, 48 h) [µM]	EC50 (SK-Br-3) [µM]	EC50 (HeLa) [µM]	EC50 (CX-2) [µM]	EC50 (DAN-G) [µM]	EC50 (HuH7; Huh-7) [µM]
Cc1cnc(NC(=O)c2csc(C3CCN(C(=S)Nc4ccc(N(C)C)cc4)CC3)n2)s1 [XLII]	2.2					
CC(=O)c1cc2cc(NC(=O)c3csc(C4CCN(C(=O)CC5C=Nc6ccccc65)CC4)n3)ccc2o1 (stereo not shown) [XXXII]	3.08					
O=C(Nc1ccc(F)c(F)c1)c1csc(C2CCN(C(=O)CC3C=Nc4ccccc43)CC2)n1 (stereo not shown) [XXIV]	0.25	16.6	8.91	10.3	2.55	
COc1ccc(C(=O)N2CCC(c3nc(C(=O)Nc4cc(-c5ccco5)n[nH]4)cs3)CC2)c(OC)c1OC [LVI]	3.6	> 20	10.5	> 20	16.9	
COc1ccccc1C(=O)NNC(=O)c1csc(C2CCN(C(=O)CC3C=Nc4ccccc43)CC2)n1 (stereo not shown) [XXIII]	16.7					
C=CCSc1ncccc1C(=O)N1CCC(c2nc(C(=O)Nc3cc(C(C)(C)C)n[nH]3)cs2)CC1 [XXX]	4.2					
O=C(Nc1nccs1)c1csc(C2CCN(C(=O)Cc3c[nH]c4ccccc34)CC2)n1 [X]		18.9	18	> 20	2.53	1.54
CN(NC(=O)c1csc(C2CCN(C(=O)CC3C=Nc4ccccc43)CC2)n1)c1cnc2ccccc2n1 (stereo not shown) [XLV]	7.56					
COc1ccc(CN2CCN(C(=O)c3csc(C4CCN(C(=O)CC5C=Nc6ccccc65)CC4)n3)CC2)cc1 (stereo not shown) [XXVII]	35.6					
CCOc1cccc(C(=O)NNC(=O)c2csc(C3CCN(C(=O)CC4C=Nc5ccccc54)CC3)n2)c1 (stereo not shown) [LVIII]	4.58					
Cn1nc(-c2ccccc2)cc1NC(=O)c1csc(C2CCN(C(=O)Cc3c[nH]c4ccccc34)CC2)n1 [VII]		10.8	12.5	> 20	7.1	3.38
COc1cccc(CCNC(=O)c2csc(C3CCN(C(=O)CC4C=Nc5ccccc54)CC3)n2)c1 (stereo not shown) [XXXVIII]	20.6					
CS(=O)(=O)c1ccc(CNC(=O)c2csc(C3CCN(C(=O)CC4C=Nc5ccccc54)CC3)n2)cc1 (stereo not shown) [XIX]	8.5					
Cc1ccc(NC(=O)c2csc(C3CCN(C(=O)CC4C=Nc5ccccc54)CC3)n2)cc1F (stereo not shown) [XV]	1.64	10.8	17.2	10.9	3.81	
O=C(Nc1ccc(F)c([N+](=O)[O-])c1)c1csc(C2CCN(C(=O)Cc3c[nH]c4ccccc34)CC2)n1 [II]		10.4	12.1	> 20	3.16	3.42
CC(C)(Cc1ccc(F)cc1)NC(=O)c1csc(C2CCN(C(=O)CC3C=Nc4ccccc43)CC2)n1 (stereo not shown) [VI]	4.81	10.4	13.5	19.2	11.2	
O=C(Nc1cc(-c2ccccc2)[nH]n1)c1csc(C2CCN(C(=O)Cc3c[nH]c4ccccc34)CC2)n1 [I]						5.35
Cn1nc(-c2ccccc2)cc1NC(=O)c1csc(C2CCN(C(=O)c3c(F)cccc3Cl)CC2)n1 [XLIX]	3.03					
Cc1csc(NC(=O)c2csc(C3CCN(C(=O)CC4C=Nc5ccccc54)CC3)n2)c1C(N)=O (stereo not shown) [XIV]	12.9					
Cc1nc(C)c(C(=O)N2CCC(c3nc(C(=O)NC4C=C(c5cccs5)N=N4)cs3)CC2)s1 (stereo not shown) [XVI]		> 20	10.5	> 20	7.99	
O=C(CC1C=Nc2ccccc21)N1CCC(c2nc(C(=O)N3CCN(c4c(Cl)cncc4Cl)CC3)cs2)CC1 (stereo not shown) [XLIII]	4.74					
O=C(CC1C=Nc2ccccc21)N1CCC(c2nc(C(=O)N3CCN(c4ccc(Cl)c(Cl)c4)CC3)cs2)CC1 (stereo not shown) [LI]	4.9					
Cc1ccc(C(=O)NNC(=O)c2csc(C3CCN(C(=O)CC4C=Nc5ccccc54)CC3)n2)s1 (stereo not shown) [LV]	4.04					
O=C(Nc1cccc(-c2cnco2)c1)c1csc(C2CCN(C(=O)Cc3c[nH]c4ccccc34)CC2)n1 [IX]						12.1
